# Biological target: human full-length MKNK1 (Homo sapiens (Human), UniProt Q9BUB5, T344D)
# Assay: MKNK1 kinase high ATP assay (TR-FRET)
# Assay type: biochemical
# Conditions: high ATP (2 mM final), 15 min preincubation with enzyme
# Description: MKNK1 Kinase High ATP Assay
# MKNK1-inhibitory activity at high ATP of compounds of the present invention after their preincubation with MKNK1 was quantified employing the TR-FRET-based MKNK1 high ATP assay as described in the following paragraphs.
# A recombinant fusion protein of Glutathione-S-Transferase (GST, N-terminally) and human full-length MKNK1 (amino acids 1-424 and T344D of accession number BAA 19885.1), expressed in insect cells using baculovirus expression system and purified via glutathione sepharose affinity chromatography, was purchased from Carna Biosciences (product no 02-145) and used as enzyme. As substrate for the kinase reaction the biotinylated peptide biotin-Ahx-IKKRKLTRRKSLKG (C-terminus in amide form) was used, which can be purchased e.g. from the company Biosyntan (Berlin-Buch, Germany).
# For the assay 50 nL of a 100 fold concentrated solution of the test compound in DMSO was pipetted into a black low volume 384 well microtiter plate (Greiner Bio-One, Frickenhausen, Germany), 2 μL of a solution of MKNK1 in aqueous assay buffer [50 mM HEPES pH 7.5, 5 mM MgCl2, 1.0 mM dithiothreitol, 0.005% (v/v) Nonidet-P40 (Sigma)] was added and the mixture was incubated for 15 min at 22° C. to allow pre-binding of the test compounds to the enzyme before the start of the kinase reaction. Then the kinase reaction was started by the addition of 3 μL of a solution of adenosine-tri-phosphate (ATP, 3.3 mM=>final conc. in the 5 μL assay volume is 2 mM) and substrate (0.1 μM=>final conc. in the 5 μL assay volume is 0.06 μM) in assay buffer and the resulting mixture was incubated for a reaction time of 30 min at 22° C. The concentration of MKNK1 was adjusted depending of the activity of the enzyme lot and was chosen appropriate to have the assay in the linear range, typical concentrations were in the range of 0.003 μg/mL. The reaction was stopped by the addition of 5 μL of a solution of TR-FRET detection reagents (5 nM streptavidine-XL665 [Cisbio Bioassays, Codolet, France] and 1 nM anti-ribosomal protein S6 (pSer236)-antibody from Invitrogen [#44921G] and 1 nM LANCE EU-W1024 labeled ProteinG [Perkin-Elmer, product no. AD0071]) in an aqueous EDTA-solution (100 mM EDTA, 0.1% (w/v) bovine serum albumin in 50 mM HEPES pH 7.5).
# The resulting mixture was incubated for 1 h at 22° C. to allow the formation of complex between the phosphorylated biotinylated peptide and the detection reagents. Subsequently the amount of phosphorylated substrate was evaluated by measurement of the resonance energy transfer from the Eu-chelate to the streptavidine-XL. Therefore, the fluorescence emissions at 620 nm and 665 nm after excitation at 350 nm were measured in a TR-FRET reader, e.g. a Rubystar (BMG Labtechnologies, Offenburg, Germany) or a Viewlux (Perkin-Elmer). The ratio of the emissions at 665 nm and at […] was taken as the measure for the amount of phosphorylated substrate. The data were normalised (enzyme reaction without inhibitor=0% inhibition, all other assay components but no enzyme=100% inhibition).
# Sequence of human full-length MKNK1 (Q9BUB5 other isoform, or with tags, fused parts or gaps T344D): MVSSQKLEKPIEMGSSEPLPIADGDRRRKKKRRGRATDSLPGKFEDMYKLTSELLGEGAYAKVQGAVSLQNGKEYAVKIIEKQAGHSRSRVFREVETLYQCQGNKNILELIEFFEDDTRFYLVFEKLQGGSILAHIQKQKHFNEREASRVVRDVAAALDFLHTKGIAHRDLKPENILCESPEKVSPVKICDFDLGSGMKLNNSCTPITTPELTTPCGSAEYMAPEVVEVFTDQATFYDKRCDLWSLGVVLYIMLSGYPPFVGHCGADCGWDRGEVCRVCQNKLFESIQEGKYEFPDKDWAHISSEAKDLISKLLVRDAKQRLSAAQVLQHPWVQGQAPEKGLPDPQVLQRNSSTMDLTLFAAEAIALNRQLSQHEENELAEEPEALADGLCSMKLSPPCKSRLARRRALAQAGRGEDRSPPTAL
row,Structure (SMILES),IC50 [nM]
1,"Fc1cc2[nH]ncc2cc1Nc1ncnc2[nH]nc(-c3cccnc3)c12 [Example 11, N-(6-fluoro-1H-indazol-5-yl)-3-(pyridin-3-yl)-1H-pyrazolo[3,4-d]pyrimidin-4-amine]",8
2,"Fc1ccc(-c2n[nH]c3ncnc(Nc4cc5cn[nH]c5cc4F)c23)cc1 [Example 14, N-(6-Fluoro-1H-indazol-5-yl)-3-(4-fluorophenyl)-1H-pyrazolo[3,4-d]pyrimidin-4-amine]",12
3,"Fc1cc2[nH]ncc2cc1Nc1ncnc2[nH]nc(Br)c12 [Example 5, 3-Bromo-N-(6-fluoro-1H-indazol-5-yl)-1H-pyrazolo[3,4-d]pyrimidin-4-amine]",12
4,"CC(C)Oc1cc2[nH]ncc2cc1Nc1ncnc2[nH]nc(-c3ccc(F)cc3)c12 [Example 19, 3-(4-Fluorophenyl)-N-(6-isopropoxy-1H-indazol-5-yl)-1H-pyrazolo[3,4-d]pyrimidin-4-amine]",26
5,"Fc1cc2[nH]ncc2cc1Nc1ncnc2[nH]nc(-c3ccccc3)c12 [Example 8, N-(6-fluoro-1H-indazol-5-yl)-3-phenyl-1H-pyrazolo[3,4-d]pyrimidin-4-amine]",15
6,"CC(C)Oc1cc2[nH]ncc2cc1Nc1ncnc2[nH]ncc12 [Example 3, N-[6-(Propan-2-yloxy)-1H-indazol-5-yl]-1H-pyrazolo[3,4-d]pyrimidin-4-amine]",531
7,"CC(C)Oc1cc2[nH]ncc2cc1Nc1ncnc2[nH]nc(-c3ccccc3)c12 [Example 18, N-(6-Isopropoxy-1H-indazol-5-yl)-3-phenyl-1H-pyrazolo[3,4-d]pyrimidin-4-amine]",19
8,"c1nc(Nc2ccc3[nH]ncc3c2)c2cn[nH]c2n1 [Example 1, N-(1H-Indazol-5-yl)-1H-pyrazolo[3,4-d]pyrimidin-4-amine]",117
9,"c1cncc(-c2n[nH]c3ncnc(Nc4ccc5[nH]ncc5c4)c23)c1 [Example 9, N-(1H-Indazol-5-yl)-3-(pyridin-3-yl)-1H-pyrazolo[3,4-d]pyrimidin-4-amine]",8
10,"CC(C)Oc1cc2[nH]ncc2cc1Nc1ncnc2[nH]nc(-c3ccncc3)c12 [Example 21, N-(6-Isopropoxy-1H-indazol-5-yl)-3-(pyridin-4-yl)-1H-pyrazolo[3,4-d]pyrimidin-4-amine]",27
11,"COc1cc2[nH]ncc2cc1Nc1ncnc2[nH]nc(-c3cccnc3)c12 [Example 10, N-(6-Methoxy-1H-indazol-5-yl)-3-(pyridin-3-yl)-1H-pyrazolo[3,4-d]pyrimidin-4-amine]",6
12,"COc1cc2[nH]ncc2cc1Nc1ncnc2[nH]nc(-c3ccccc3)c12 [Example 7, N-(6-methoxy-1H-indazol-5-yl)-3-phenyl-1H-pyrazolo[3,4-d]pyrimidin-4-amine]",3
13,"c1ccc(-c2n[nH]c3ncnc(Nc4ccc5[nH]ncc5c4)c23)cc1 [Example 15, N-(1H-Indazol-5-yl)-3-phenyl-1H-pyrazolo[3,4-d]pyrimidin-4-amine]",26
14,"COc1cc2[nH]ncc2cc1Nc1ncnc2[nH]nc(Br)c12 [Example 4, 3-Bromo-N-(6-methoxy-1H-indazol-5-yl)-1H-pyrazolo[3,4-d]pyrimidin-4-amine]",1
15,"COc1cc2[nH]ncc2cc1Nc1ncnc2[nH]nc(-c3ccc(F)cc3)c12 [Example 13, 3-(4-Fluorophenyl)-N-(6-methoxy-1H-indazol-5-yl)-1H-pyrazolo[3,4-d]pyrimidin-4-amine]",2
16,"Fc1ccc(-c2n[nH]c3ncnc(Nc4ccc5[nH]ncc5c4)c23)cc1 [Example 12, 3-(4-Fluorophenyl)-N-(1H-indazol-5-yl)-1H-pyrazolo[3,4-d]pyrimidin-4-amine]",12
17,"COc1cc2[nH]ncc2cc1Nc1ncnc2[nH]nc(-c3ccncc3)c12 [Example 16, N-(6-Methoxy-1H-indazol-5-yl)-3-(pyridin-4-yl)-1H-pyrazolo[3,4-d]pyrimidin-4-amine]",2
18,"CC(C)Oc1cc2[nH]ncc2cc1Nc1ncnc2[nH]nc(-c3cccnc3)c12 [Example 20, N-(6-Isopropoxy-1H-indazol-5-yl)-3-(pyridin-3-yl)-1H-pyrazolo[3,4-d]pyrimidin-4-amine]",63
19,"CC(C)Oc1cc2[nH]ncc2cc1Nc1ncnc2[nH]nc(Br)c12 [Example 17, 3-Bromo-N-(6-isopropoxy-1H-indazol-5-yl)-1H-pyrazolo[3,4-d]pyrimidin-4-amine]",1
20,"Brc1n[nH]c2ncnc(Nc3ccc4[nH]ncc4c3)c12 [Example 6, 3-Bromo-N-(1H-indazol-5-yl)-1H-pyrazolo[3,4-d]pyrimidin-4-amine]",14
